In data set [1] the test system is IRE1/XBP1s signaling pathway. Description: XBP1-RLuc splicing reporter in HEK293T-REx cells. The format is cell-based. To be noted: HEK293-T-REx; HEK293T-REx XBP1-RLuc cells, 18 hr; read-out: EC50 of XBP1-RLuc activation. The method, then: FIG. 2A and FIG. 2B. Activation of RLuc luminescence in HEK293T-Rex cells stably expressing XBP1s-RLuc treated with 10 μM IRE1 activators in the presence or absence of IRE1 inhibitor 4 μ8c (32 μM) for 18 hr. Luminescence is shown as % signal relative to Tg treatment (500 nM; 18 hr). Error bars represent standard deviation for n=3 replicates (FIG. 2A), Activation of RLuc luminescence in HEK293T-Rex cells stably expressing XBP1s-RLuc treated with the indicated concentrations of IRE1 activator compounds for 18 hr. Luminescence is shown as % signal relative to Tg treatment (500 nM; 18 hr) Error bars represent standard deviation for n=3 replicates (FIG. 2B).
HEK293T-Rex cells incorporating either the XBP1s-Rluc or ERSE-FLuc reporters were collected by trypsinization and resuspended at a density of 500,000 cells per mL. The assay was started by dispensing 5 μL of cell suspension into each well of white, solid-bottom 1536-well plates using a flying reagent dispenser (FRD) and placed into an online incubator for 3 hr. Cells were then treated with 34 nL/well of either test compounds to give final concentrations of 5.17 μM, DMSO (low control, final concentration 0.68%, 0% activation) or 37 μM of Delta-7 thapsigargin (high control, final concentration 500 nM, 100% activation). Plates were incubated for 18 hr at 37° C., removed from the incubator and equilibrated to room temperature for 10 min. Luciferase activity was detected by addition of 5 μL of ONE-Glo reagent (Promega) to each well. After a 10 min incubation time, light emission was measured with the ViewLux reader (PerkinElmer).
The percent activation of each test compound was calculated as follows: % Activation=100*(Test Compound-Median Low Control)/(Median High Control Median Low Control). Primary screening of the 646,275 compound library at Scripps Florida yielded 10,114 hits for XBP1s Renilla Luciferase activity at ≥13.83% activation by thapsigargin. Compounds that hit in more than 7 screens (promiscuity score) were eliminated, as well as those that elicited HSP70 activation. The top 6,391 remaining compounds (activation≥16.36%) were moved forward to triplicate confirmation screening and HEK TREX CTG cytotoxicity counterscreening. Duplicates were removed from the resulting list, and the top 638 activating compounds (≥15.92%) were moved forward for triplicate titration screening and HEK TREX CTG titration counterscreening.
A HEK293^T-REx cell line that stably expresses a XBP1-Renilla luciferase (XBP1-RLuc) splicing reporter was used to identify compounds that activated the IRE1/XBP1s signaling pathway^37. Activated IRE1selectively splices mRNA encoded by this reporter, resulting in a frame-shift that allows expression of the active Renilla luciferase enzyme^37. […]

A further data set relates to XBP1 splicing. Description: XBP1 splicing in wild-type and Ire1-deficient MEF cells. It is filed as cell-based, mouse. To be noted: for XBP1 splicing: Ire1-deficient MEF cells; for IRE1-dependent XBP1 splicing: wild-type MEF cells. The method, then:
To amplify the spliced and unspliced XBP1 mRNA, XBP1 primers were used as described previously.^21 PCR products were electrophoresed on 2.5% agarose gel. GAPDH (forward 5′[…]3′, reverse 5′[…]3′) was used as a loading control. The size difference between the spliced and the unspliced XBP1 is 26 nucleotides.
Compounds 474, 198, and 970 were selected as exemplary hits based on their selective IRE1-depedendent induction of DNAJB9, their EC50 of XBP1-RLuc activation of <3 μM and their high maximal activation of IRE1signaling measured by both XBP1s-RLuc activity and DNAJB9 expression (>50% that observed with Tg). […] However, this splicing was not observed in Ire1-deficient MEF cells, further confirming that these compounds increase XBP1 splicing by an IRE1-dependent mechanism.

For another data set, the target named is IRE1 (Homo sapiens, UniProt O75460). The experiment in a line: IRE1 phosphorylation by Phos-tag SDS-PAGE and immunoblotting in HEK293T cells. The format is cell-based. To be noted: test compound alone, 10 μM, 4 hours. The method, then:
FIG. 3A-FIG. 3D. […] Error bars show SEM for n=3. […] Error bars show SEM for n=3. […] Error bars show SEM for n=3.
Cell lysates were prepared as previously described in RIPA buffer (50 mM Tris, pH 7.5, 150 mM NaCl, 0.1% SDS, 1% Triton X-100, 0.5% deoxycholate and protease inhibitor cocktail (Roche). Total protein concentration in cellular lysates was normalized using the Bio-Rad protein assay. Lysates were then denatured with 1× Laemmli buffer+100 mM DTT and boiled before being separated by SDS-PAGE. Samples were transferred onto nitrocellulose membranes (Bio-Rad) for immunoblotting and blocked with 5% milk in Tris-buffered saline, 0.5% Tween-20 (TBST) following incubation overnight at 4° C. with primary antibodies. Membranes were washed in TBST, incubated with IR-Dye conjugated secondary antibodies and analyzed using Odyssey Infrared Imaging System (LI-COR Biosciences). Quantification was carried out with LI-COR Image Studio software.
Compounds that activate IRE1 through binding the IRE1 kinase active site and inhibiting IRE1 autophosphorylation can elicit off-target activity likely associated with binding to other protein kinases.^20, 35, 36 Thus, the purpose of this example was to define the dependence of the present compounds on IRE1 kinase activity. HEK293T cells were treated with compound 198, 474, or 970 in the absence or presence of Tg, and IRE1 phosphorylation was monitored by using Phos-tag SDS-PAGE and immunoblotting. As a control, cells were treated with APY29—an IRE1 kinase site inhibitor that allosterically activates the IRE1 RNAse^20 in the absence or presence of Tg.
(In general: In western blotting, separated proteins are transferred to a membrane and probed.)

A further data set concerns CHO 7WD10 cells. The experiment in a line: CHO 7WD10 viability. The format is cell-based.

Chain of IRE1 (O75460 19-977): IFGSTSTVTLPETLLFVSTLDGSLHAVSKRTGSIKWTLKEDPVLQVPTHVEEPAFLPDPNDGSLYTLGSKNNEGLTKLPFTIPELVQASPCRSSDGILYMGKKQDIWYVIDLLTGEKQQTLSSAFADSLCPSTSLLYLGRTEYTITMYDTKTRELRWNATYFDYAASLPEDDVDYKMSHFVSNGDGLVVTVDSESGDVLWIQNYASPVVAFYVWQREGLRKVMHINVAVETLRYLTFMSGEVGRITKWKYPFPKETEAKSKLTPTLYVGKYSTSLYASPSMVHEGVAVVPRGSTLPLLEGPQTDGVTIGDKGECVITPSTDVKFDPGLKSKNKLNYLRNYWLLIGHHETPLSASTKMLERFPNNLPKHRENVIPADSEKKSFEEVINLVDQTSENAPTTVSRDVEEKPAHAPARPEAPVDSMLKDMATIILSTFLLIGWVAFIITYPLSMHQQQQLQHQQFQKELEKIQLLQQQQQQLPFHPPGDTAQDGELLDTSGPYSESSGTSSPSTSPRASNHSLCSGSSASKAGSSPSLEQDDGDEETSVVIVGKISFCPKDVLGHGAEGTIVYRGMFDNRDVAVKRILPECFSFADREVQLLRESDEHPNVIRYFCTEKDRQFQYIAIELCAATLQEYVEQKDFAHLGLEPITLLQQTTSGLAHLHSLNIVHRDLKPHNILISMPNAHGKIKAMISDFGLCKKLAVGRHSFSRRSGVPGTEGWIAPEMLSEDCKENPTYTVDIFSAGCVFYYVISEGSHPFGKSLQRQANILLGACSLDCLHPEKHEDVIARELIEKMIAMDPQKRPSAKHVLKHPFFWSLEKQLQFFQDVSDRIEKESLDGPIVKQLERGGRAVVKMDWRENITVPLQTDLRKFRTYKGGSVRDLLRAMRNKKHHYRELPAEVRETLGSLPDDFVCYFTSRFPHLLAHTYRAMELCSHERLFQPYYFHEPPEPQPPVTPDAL

For `O=C(CN(Cc1ccc(Cl)cc1)S(=O)(=O)c1cccnc1)N1CCc2ccccc21` [Compound 970], in data set [1], the EC50 (in general, the concentration that produces a half-maximal response) is less than 3000 nM. For the same compound, in the data set with XBP1 splicing, the XBP1 splicing result was “not observed” and the “IRE1-dependent XBP1 splicing” value is “increased”. The “phosphorylated IRE1” value at IRE1 is “increased phosphorylated IRE1”. In addition, the cellular viability result with CHO 7WD10 cells is on record as “without impacting cellular viability”.
For `Cc1ccc(OCCN(C)C(=O)Cn2cc(NC(=O)CCOc3ccccc3)cn2)cc1` [Compound 474], the 50% effective concentration (EC50) in data set [1] was less than 3000 nM. Moreover, in the data set with XBP1 splicing, the XBP1 splicing result was “not observed” and the “IRE1-dependent XBP1 splicing” value is listed as “increased”. For the same compound, the “phosphorylated IRE1” value at IRE1 was “increased phosphorylated IRE1”. The cellular viability entry in the data set on CHO 7WD10 cells is reported as “without impacting cellular viability”.
As for `CCOC(CNC(=O)C1CCCN(Cc2nc(-c3ccc(Cl)cc3)oc2C)C1)OCC` (stereo not drawn) [Compound 198], the EC50 in data set [1] was less than 3000 nM. Besides, in the data set with XBP1 splicing, the XBP1 splicing result was “not observed” and the “IRE1-dependent XBP1 splicing” value is listed as “increased”. Further, the “phosphorylated IRE1” value at IRE1 was “increased phosphorylated IRE1”. The cellular viability entry in the data set with CHO 7WD10 cells is “without impacting cellular viability”.
